Consider 11 compounds from paper PMC7475179, “Characterization of a caffeoyl-CoA O-methyltransferase-like enzyme involved in biosynthesis of polymethoxylated flavones in Citrus reticulata” (Journal of Experimental Botany, 2020).

In this assay the test system is CrOMT1. The assay can be described thus: MTase-Glo methyltransferase assay (SAH luminescence), Michaelis-Menten fit. Format: biochemical, Citrus reticulata. The conditions noted are these: 2 mM SAM, 50 mM Tris-HCl pH 8.0, 37 °C, 30 min.

For `C[C@@H]1O[C@@H](OC[C@H]2O[C@@H](Oc3cc(O)c4c(c3)O[C@H](c3ccc(O)c(O)c3)CC4=O)[C@H](O)[C@@H](O)[C@@H]2O)[C@H](O)[C@H](O)[C@H]1O` [eriocitrin, eriodictyol-7-O-rutinoside], the Km is 7.9 ± 1 µM.
`O=c1cc(-c2ccc(O)c(O)c2)oc2cc(O)cc(O)c12` [luteolin, 5,7,3',4'-tetrahydroxyflavone]: the Km (3'-O-methylation) was found to be 3.1 ± 0.6 µM.
Consider `O=C1C[C@@H](c2ccc(O)c(O)c2)Oc2cc(O)cc(O)c21` [eriodictyol], for which the Km came to 61.8 ± 9.9 µM.
Regarding `O=c1cc(-c2cc(O)c(O)c(O)c2)oc2cc(O)cc(O)c12` [tricetin], the Michaelis constant (Km) is 0.6 µM.
Take `O=c1cc(-c2ccccc2)oc2cc(O)c(O)c(O)c12` [baicalein]: the Km (6-O-methylation) came to 3.3 ± 0.6 µM.
`O=c1c(O)c(-c2ccc(O)c(O)c2)oc2cc(O)cc(O)c12` [quercetin]: the Michaelis constant (Km) was found to be 4.5 ± 0.8 µM.
On the same count and under the same terms, as for `COc1c(-c2ccc(O)c(O)c2)oc2cc(O)cc(O)c2c1=O` [quercetin 3-methyl ether], the figure is 3.9 ± 0.5 µM; as for `C[C@@H]1O[C@@H](O[C@H]2[C@H](Oc3cc(O)c4c(c3)O[C@H](c3ccc(O)c(O)c3)CC4=O)O[C@H](CO)[C@@H](O)[C@@H]2O)[C@H](O)[C@H](O)[C@H]1O` [neoeriocitrin, eriodictyol-7-O-neohesperidoside], 8.7 ± 1 µM.
As to `O=c1cc(-c2ccccc2)oc2c(O)c(O)ccc12` [7,8-dihydroxyflavone], the Km (8-O-methylation) came out at 1.8 ± 0.4 µM.
Turning to `O=c1c(O)c(-c2ccc(O)cc2)oc2cc(O)cc(O)c12` [kaempferol], the Michaelis constant (Km) was 248 µM.
Consider `O=c1c(O)c(-c2cc(O)c(O)c(O)c2)oc2cc(O)cc(O)c12` [myricetin], for which the Km amounted to 23.8 ± 4.3 µM.

For orientation: Km means the concentration of substrate that gives half-maximal velocity.
